The values below come from patent publication US8546376B2, “Pharmaceutical compounds” (Almac Discovery Limited, priority 2009, dated 2013).

Each structure is given as a SMILES string. Where a name gives a salt, the structure may show the parent alone.

Format in all cases: biochemical
The target in experiment [1] is T1, AKT2 (Homo sapiens, UniProt P31751).
T1 construct: purchased SignalChem
Put plainly: AKT Kinase Assay (IMAP fluorescent polarisation) vs AKT2. The note with it: activated AKT2, FAM Crosstide substrate. How it is done: (§1) Testing of the compounds was performed using an AKT Kinase Assay:
(§2) Activated AKT isoforms 1, 2 and 3 were assayed utilising a 5′ FAM Crosstide (Seq. GRPRTSSFAEG-OH). The extent of kinase phosphorylation was determined by fluorescent polarisation using IMAP progressive binding reagent, which introduces binding beads which allow the reagent to specifically bind to phosphate residues via covalent co-ordination complex bonds.
(§3) iMAP binding solution stops Crosstide/kinase interaction and specifically binds phosphorylated substrates. The degree of phosphorylation is determined by fluorescent polarisation (excitation 485 nm; emission 528 nm) or the reduction in speed of rotation of the excited substrate.
(§4) The following materials were used in the assay: • a) Activated AKT isoforms (SignalChem.) dissolved in Complete Reaction buffer at a pre-determined concentration selected so that the assay was carried out in the linear range. • b) AKT substrate peptide: FAM Crosstide (R7110) Molecular Devices, diluted in complete reaction buffer. • c) iMAP Progressive Screening Express Kit (R8127) Molecular Devices • d) Complete Reaction Buffer containing 0.1% BSA, 10 mM Tris-HCl, 10 mM MgCl2, 0.05% NaN3 and 0.01% phosphate free BSA, 1 mM DTT • e) Progressive Binding Solution containing 75% Buffer A, 25% Buffer B and low volume Binding Reagent which contains the binding entity for the assay • f) ATP diluted in complete reaction buffer • g) Black polystyrene 384 well assay plates (Nunc). • h) Biotek Synergy 4 Hybrid Plate reader.
(§5) 5 μl of test compound was dissolved in DMSO (Sigma Aldrich) and serially diluted in complete reaction buffer to give a fourteen point half log dose response and plated into 384 well black plates. The compound was incubated at room temperature with activated AKT isoform (5 μl) at the pre-determined concentration, for 45 minutes.
(§6) 2.5 μl of ATP solution mixed with 2.5 μl of AKT substrate peptide (FAM Crosstide (R7110) Molecular Devices) were dispensed into each well and the plate centrifuged at 1000 rpm for 20 seconds to ensure homogenous mixing of reagents. The reaction mix was incubated in the dark for one hour at room temperature.
(§7) The kinase reaction was stopped by the addition of Progressive Binding Solution and the mixture allowed to equilibrate for one hour in the dark, at room temperature.
(§8) The fluorescent polarisation generated in each well was determined using a […] Synergy 4 Hybrid plate reader. In brief, each reaction solution was excited at 485 nm with the emission measured at 528 nm in both the parallel and perpendicular pathway.
(§9) The polarisation value generated in each well was calculated by Gen5 software (Biotek) and the % inhibition of kinase activity compared to vehicle control was calculated via GraphPad Prism. IC50 values for each compound were calculated by non-linear regression analysis using Prism software.
(§10) All plates were internally controlled by two methods. Firstly, by calculating the signal:noise ratio; based on kinase polarisation without inhibitor and polarisation generated by complete reaction buffer in the absence of activated kinase. Secondly by determining IC50 values generated by known inhibitors of the AKT isoforms.

The target in experiment [2] is T2, AKT1 (Homo sapiens, UniProt P31749).
T2 construct: purchased SignalChem
Nature of the experiment: AKT Kinase Assay (IMAP fluorescent polarisation) vs AKT1. The note with it: activated AKT1, FAM Crosstide substrate. How it is done:
as §1, §2, §3, §4, §5, §6, §7, §8, §9, §10

The target in experiment [3] is T3, AKT3 (Homo sapiens, UniProt Q9Y243).
T3 construct: purchased SignalChem
Put plainly: AKT Kinase Assay (IMAP fluorescent polarisation) vs AKT3. The following applies: activated AKT3, FAM Crosstide substrate. The method, then:
as §1, §2, §3, §4, §5, §6, §7, §8, §9, §10

T2 sequence (P31749 whole entry): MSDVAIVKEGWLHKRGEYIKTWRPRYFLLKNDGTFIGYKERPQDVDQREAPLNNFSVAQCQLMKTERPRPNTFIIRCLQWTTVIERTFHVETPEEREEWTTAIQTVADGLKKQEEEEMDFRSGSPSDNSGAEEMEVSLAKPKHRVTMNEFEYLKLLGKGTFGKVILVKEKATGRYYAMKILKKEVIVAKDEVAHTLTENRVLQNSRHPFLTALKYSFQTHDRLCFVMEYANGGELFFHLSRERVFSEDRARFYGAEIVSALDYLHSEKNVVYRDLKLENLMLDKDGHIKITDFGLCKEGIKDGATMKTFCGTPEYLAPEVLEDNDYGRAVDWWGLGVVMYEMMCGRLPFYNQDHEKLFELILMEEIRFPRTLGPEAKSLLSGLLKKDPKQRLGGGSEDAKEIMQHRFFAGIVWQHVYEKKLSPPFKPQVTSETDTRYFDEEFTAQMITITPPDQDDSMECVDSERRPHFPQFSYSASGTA
T1 sequence (P31751 whole entry): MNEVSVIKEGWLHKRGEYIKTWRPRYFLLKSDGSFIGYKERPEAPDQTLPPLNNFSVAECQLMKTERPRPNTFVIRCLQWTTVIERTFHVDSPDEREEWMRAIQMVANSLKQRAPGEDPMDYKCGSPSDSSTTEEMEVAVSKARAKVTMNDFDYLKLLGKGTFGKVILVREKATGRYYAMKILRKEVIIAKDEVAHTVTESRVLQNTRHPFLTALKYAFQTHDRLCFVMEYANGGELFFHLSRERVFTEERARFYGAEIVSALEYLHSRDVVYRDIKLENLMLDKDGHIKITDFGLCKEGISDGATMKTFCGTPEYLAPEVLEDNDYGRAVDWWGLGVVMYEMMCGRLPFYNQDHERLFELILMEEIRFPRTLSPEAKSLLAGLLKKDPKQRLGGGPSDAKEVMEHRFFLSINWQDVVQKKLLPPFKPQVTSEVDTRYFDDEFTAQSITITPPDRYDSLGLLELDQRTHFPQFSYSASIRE
T3 sequence (Q9Y243 whole entry): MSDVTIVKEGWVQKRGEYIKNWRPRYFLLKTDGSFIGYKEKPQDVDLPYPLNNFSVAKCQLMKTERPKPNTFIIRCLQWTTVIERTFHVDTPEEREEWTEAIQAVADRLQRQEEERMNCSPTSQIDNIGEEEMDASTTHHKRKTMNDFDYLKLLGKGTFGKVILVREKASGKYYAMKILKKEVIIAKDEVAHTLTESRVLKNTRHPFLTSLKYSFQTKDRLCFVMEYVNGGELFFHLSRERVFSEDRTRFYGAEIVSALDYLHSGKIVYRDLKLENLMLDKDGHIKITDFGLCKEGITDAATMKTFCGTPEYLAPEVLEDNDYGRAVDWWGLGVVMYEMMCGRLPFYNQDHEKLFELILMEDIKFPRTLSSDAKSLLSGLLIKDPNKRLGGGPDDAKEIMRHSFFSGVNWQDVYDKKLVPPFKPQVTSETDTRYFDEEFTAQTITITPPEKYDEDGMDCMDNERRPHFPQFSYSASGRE

As a reminder, the IC50 is the midpoint of a concentration-inhibition curve. For `COc1cc2c(=O)c(-c3ccc(C4(N)CCC4)cc3)c(-c3ccccc3)oc2cc1-c1ccn[nH]1` [Example 28, 3-[4-(1-Amino-cyclobutyl)-phenyl]-6-methoxy-2-phenyl-7-(2H-pyrazol-3yl)-chromen-4-one], the IC50 was 1000 to 10000 nM in experiment [1], greater than 10000 nM in experiment [2] and greater than 10 µM in experiment [3].
With `COc1cc2c(=O)c(-c3ccc(C4(N)CCC4)cc3)c(-c3ccccc3)oc2cc1C(N)=O` [Example 29, 3-[4-(1-Amino-cyclobutyl)-phenyl]-6-methoxy-4-oxo-2-phenyl-4H-chromene-7-carboxylic acid amide], the IC50 in experiment [1] is no more than 1000 nM; in experiment [2] it was 1000 to 10000 nM; in experiment [3] it was greater than 10 µM.
Regarding `COc1cc2c(=O)c(-c3ccc(C4(N)CCC4)cc3)c(-c3ccccc3)oc2cc1C#N` [Example 30, 3-[4-(1-Amino-cyclobutyl)-phenyl]-6-methoxy-4-oxo-2-phenyl-4H-chromene-7-carbonitrile], the IC50 was 1000 to 10000 nM in experiment [1], greater than 10000 nM in experiment [2] and 1 to 10 µM in experiment [3].
Regarding `COCCn1ccc2c(=O)c(-c3ccc(C4(N)CCC4)cc3)c(-c3ccccc3)oc2c1=O` [Example 31, 3-[4-(1-Amino-cyclobutyl)-phenyl]-7-(2-methoxy-ethyl)-2-phenyl-7H-pyrano[2,3-c]pyridine-4,8-dione], the half-inhibitory concentration (IC50) in experiment [1] is 1000 to 10000 nM; in experiment [2], greater than 10000 nM; in experiment [3] it was 1 to 10 µM.
Taken in the same sequence, the figures for `NC1(c2ccc(-c3c(-c4ccccc4)oc4c(OC(F)F)nccc4c3=O)cc2)CCC1` [Example 32, 3-[4-(1-Amino-cyclobutyl)-phenyl]-8-difluoromethoxy-2-phenyl-pyrano[2,3-c]pyridin-4-one] were no more than 1000 nM, 1000 to 10000 nM and 1 to 10 µM.
Taken in the same sequence, the figures for `NC1(c2ccc(-c3c(-c4ccccc4)oc4c(ccc5[nH]ncc54)c3=O)cc2)CCC1` [Example 33, 3-[4-(1-Amino-cyclobutyl)-phenyl]-2-phenyl-7H-pyrano[2,3-c]indazol-4-one] were no more than 1000 nM, no more than 1000 nM and no more than 1 µM.
Consider `NC1(c2ccc(-c3c(-c4ccccc4)oc4ncccc4c3=O)cc2)CCC1` [Example 34, 3-[4-(1-Amino-cyclobutyl)-phenyl]-2-phenyl-pyrano[2,3-b]pyridin-4-one], for which the 50% inhibitory concentration (IC50) in experiment [1] was 1000 to 10000 nM; in experiment [2], 1000 to 10000 nM; in experiment [3], greater than 10 µM.
Regarding `COc1ccc2c(=O)c(-c3ccc(C4(N)CCC4)cc3)c(-c3ccccc3)oc2n1` [Example 35, 3-[4-(1-Amino-cyclobutyl)-phenyl]-7-methoxy-2-phenyl-pyrano[2,3-b]pyridin-4-one hydrochloride], the half-inhibitory concentration (IC50) lay in the range of 1000 to 10000 nM in experiment [1], 1000 to 10000 nM in experiment [2] and 1 to 10 µM in experiment [3].
For `NC1(c2ccc(-c3c(-c4ccccc4)oc4[nH]c(=O)ccc4c3=O)cc2)CCC1` [Example 36, 3-[4-(1-Amino-cyclobutyl)-phenyl]-2-phenyl-8H-pyrano[2,3-b]pyridine-4,7-dione hydrochloride], the IC50 in experiment [1] is 1000 to 10000 nM; in experiment [2], 1000 to 10000 nM; in experiment [3], greater than 10 µM.
For `NC1(c2ccc(-c3c(-c4ccccc4)oc4cc(F)ccc4c3=O)cc2)CCC1` [Example 37, 3-[4-(1-Amino-cyclobutyl)-phenyl]-7-fluoro-2-phenyl-chromen-4-one hydrochloride], the IC50 in experiment [1] is 1000 to 10000 nM; in experiment [2], no more than 1000 nM; in experiment [3], 1 to 10 µM.
With `NC1(c2ccc(-c3c(-c4ccccc4)oc4nc(Cl)ccc4c3=O)cc2)CCC1` [Example 38, 3-[4-(1-Amino-cyclobutyl)-phenyl]-7-chloro-2-phenyl-pyrano[2,3-b]pyridin-4], the IC50 is 1000 to 10000 nM in experiment [1], 1000 to 10000 nM in experiment [2] and greater than 10 µM in experiment [3].
As for `COc1nccc2c(=O)c(-c3ccc(C4(N)CCC4)cc3)c(-c3ccccc3)oc12` [Example 39, 3-[4-(1-Amino-cyclobutyl)-phenyl]-8-methoxy-2-phenyl-pyrano[2,3-c]pyridin-4-one hydrochloride], the values for the IC50 in experiment [1], in experiment [2] and in experiment [3] were no more than 1000 nM, no more than 1000 nM and 1 to 10 µM, respectively.
Take `Cn1ccc2c(=O)c(-c3ccc(C4(N)CCC4)cc3)c(-c3ccccc3)oc2c1=O` [Example 41, 3-[4-(1-Amino-cyclobutyl)-phenyl]-7-methyl-2-phenyl-7H-pyrano[2,3-c]pyridine-4,8-dione hydrochloride]: the 50% inhibitory concentration (IC50) is 1000 to 10000 nM in experiment [1], greater than 10000 nM in experiment [2] and greater than 10 µM in experiment [3].
Taken in the same sequence, the figures for `NC1(c2ccc(-c3c(-c4ccccc4)oc4c(Cl)nccc4c3=O)cc2)CCC1` [Example 42, 3-[4-(1-Amino-cyclobutyl)-phenyl]-8-chloro-2-phenyl-pyrano[2,3-c]pyridin-4-one hydrochloride] were no more than 1000 nM, no more than 1000 nM and 1 to 10 µM.
Taken in the same sequence, the figures for `NC1(c2ccc(-c3c(-c4ccccc4)oc4c(=O)n(CCO)ccc4c3=O)cc2)CCC1` [Example 43, 3-[4-(1-Amino-cyclobutyl)-phenyl]-7-(2-hydroxy-ethyl)-2-phenyl-7H-pyrano[2,3-c]pyridine-4,8-dione hydrochloride] were greater than 10000 nM, greater than 10000 nM and greater than 10 µM.
For `NC1(c2ccc(-c3c(-c4ccccc4)oc4c(ccc5nc[nH]c54)c3=O)cc2)CCC1` [Example 45, 7-[4-(1-Amino-cyclobutyl)-phenyl]-8-phenyl-1H-chromeno[7,8-d]imidazol-6-one.TFA] the same measures were no more than 1000 nM, 1000 to 10000 nM and 1 to 10 µM.
Regarding `Nc1ccc2c(=O)c(-c3ccc(C4(N)CCC4)cc3)c(-c3ccccc3)oc2c1` [Example 47, 7-Amino-3-[4-(1-amino-cyclobutyl)-phenyl]-2-phenyl-1-benzopyran-4-one.TFA], the concentration for half-maximal inhibition (IC50) in experiment [1] was 1000 to 10000 nM; in experiment [2], 1000 to 10000 nM; in experiment [3], greater than 10 µM.
As to `NC1(c2ccc(C3=C(c4ccccc4)c4ccccc4C3=O)cc2)CCC1` [Example 48, 2-(4-(1-aminocyclobutyl)phenyl)-3-phenyl-1H-inden-1-one hydrochloride], the IC50 in experiment [1] lay within 1000 to 10000 nM; in experiment [2] it was 1000 to 10000 nM; in experiment [3] it was 1 to 10 µM.
Consider `Nc1cc2oc(-c3ccccc3)c(-c3ccc(C4(N)CCC4)cc3)c(=O)c2cc1Br` [Example 49, 7-Amino-3-[4-(1-amino-cyclobutyl)-phenyl]-6-bromo-2-phenyl-chromen-4-one. TFA], for which the IC50 in experiment [1] is greater than 10000 nM; in experiment [2], no more than 1000 nM; in experiment [3], greater than 10 µM.
Taken in the same sequence, the figures for `COc1ccc2c(=O)c(-c3ccc(C4(N)CCC4)cc3)c(-c3ccccc3)oc2c1C(N)=O` [Example 50, 3-[4-(1-Amino-cyclobutyl)-phenyl]-7-methoxy-4-oxo-2-phenyl-4H-chromene-8-carboxylic acid amide hydrochloride] were 1000 to 10000 nM, no more than 1000 nM and 1 to 10 µM.
`NC1(c2ccc(-c3c(-c4ccccc4)oc4c(Br)cccc4c3=O)cc2)CCC1` [Example 51, 3-[4-(1-Amino-cyclobutyl)-phenyl]-8-bromo-2-phenyl-chromen-4-one]: the IC50 in experiment [1] is no more than 1000 nM; in experiment [2] it was no more than 1000 nM; in experiment [3], no more than 1 µM.
As to `NC1(c2ccc(-c3c(-c4ccccc4)oc4c(-c5cn[nH]c5)cccc4c3=O)cc2)CCC1` [Example 52, 3-[4-(1-Amino-cyclobutyl)-phenyl]-2-phenyl-8-(1H-pyrazol-4-yl)-chromen-4-one hydrochloride], the IC50 was no more than 1000 nM in experiment [1], no more than 1000 nM in experiment [2] and no more than 1 µM in experiment [3].
With `NC1(c2ccc(-c3c(-c4ccccc4)oc4c(-c5cc[nH]n5)cccc4c3=O)cc2)CCC1` [Example 53, 3-[4-(1-Amino-cyclobutyl)-phenyl]-2-phenyl-8-(1H-pyrazol-3-14)-chromen-4-one hydrochloride], the IC50 in experiment [1] was no more than 1000 nM; in experiment [2], no more than 1000 nM; in experiment [3] it was 1 to 10 µM.
